Assay results published in US20200214999A1, “Method for Treating an Inflammatory Disorder” (Allianz Pharmascience Ltd., priority 2019, published 2020).

Assays:
[1] = test system: IMQ-induced psoriatic inflammation; assay: IMQ-induced psoriatic inflammation model, #1 animal experiment (10 days); type: in vivo, Balb/c mice; settings: for erythema, scaling, and thickness in lesional skins: photographic observation
Description: Balb/c mice were topical treated with imiquimod (IMQ) and with control cream, ASC-J9 or clobetasol for consecutive 10 days. (A) Schematic schedule was illustrated. Photographic observations in each group were shown at day 0 (B), day 5 (C) and day 10 (D).
Balb/c mice were topical treated with imiquimod (IMQ) and with control cream, ASC-J9 or clobetasol for consecutive 10 days. (A) The severity of inflammatory responses on the skin was assessed on the basis of the Psoriasis Area Severity Index. (B) Ten days after treatment, the mice were sacrificed and their skin thickness was measured with vernier caliper to assess the severity of the psoriatic responses. (C) Expession of cytokine genes in mouse skin after 10 day treatment by RT-qPCR. (D) H&E staining of lesional skin after 10 day treatment. *: p<0.05; **: […]; ns: not significant.
(§1) Animal Model of Psoriatic Inflammation: 30 or 40 mg of 5% IMQ gel (Aldara™) was smeared on the shaved backs of Balb/c mice each day for 5 or 10 days. The severity of the skin's inflammatory response was assessed on the basis of the Psoriasis Area Severity Index (PASI) as described. Briefly, the three parameters of psoriasis responses—erythema, scaling, and skin thickness—were scored independently on a scale from 0 to 4 as follows: 0: none; 1: slight; 2: moderate; 3: marked; and 4: very marked. By adding the scores from these three parameters, the severity of the response was measured using the cumulative score from 0 to 12. At the end of the experiment, the mice were sacrificed for measurement of skin thickness with vernier caliper. Group Assignments and Dose Levels of animal studies are described as follows:
(§2) The mice were (1) photoed for evaluation and analyzed (2) Psoriasis Area Severity Index (PASI); (3) Skin thickness measurement. We selected the sample in experiment with better inhibitory effect for further analysis by accessing: (1) H&E staining and (2) inflammatory gene expression including TNF-α, IL-1β, IL-17A, IL-22, IL-23 and IL-31 in lesional tissue by quantitative PCR (RT-qPCR).
We further evaluated anti-inflammatory effects of J9 on psoriatic inflammation in vivo. First, we compared the effects of J9 control cream, J9 cream and clobetasol on inhibition of IMQ-induced psoriatic inflammation in a 10-day experimental schedule (FIG. 5A). Mice of each group were photoed for evaluation at day 0, day 5 and day 10 (FIGS. 5B, 5C and 5D). […] In control cream group, there were no inhibitory effects observed (FIG. 5B). […] These phenomena were reached most severe at day 5 (FIGS. 5 and 6A). […] The skin thickness were measured at day 10. […] Expression of cytokine genes including TNF-α, IL-1β, IL-17A, IL-22, IL-23 and IL-31 in lesional skin were also analyzed. Of these cytokines, we observed that J9 attenuated IMQ-induced IL-1β expression at day 10 (FIG. 6C).

[2] = test system: IMQ-induced psoriatic inflammation; assay: IMQ-induced psoriatic inflammation model, #2 animal experiment (5 days); type: in vivo, Balb/c mice; settings: for IMQ-induced inflammation: photographic observation
Description: Balb/c mice were topical treated with imiquimod (IMQ) and with control cream, different dose of ASC-J9 for consecutive 5 days. (A) Schematic schedule was illustrated. Photographic observations in each group were shown at day 0 (B), day 5 (C).
Balb/c mice were topical treated with imiquimod (IMQ) and with control cream, different dose of ASC-J9 for consecutive 5 days. (A) The severity of inflammatory responses on the skin was assessed on the basis of the Psoriasis Area Severity Index. (B) Five days after treatment, the mice were sacrificed and their skin thickness was measured with vernier caliper to assess the severity of the psoriatic responses. […]
as §1, §2
To further understand the therapeutic effects of different concentration of J9 cream, 0.5% J9 (2 mg/cm^2 and 6 mg/cm^2), 0.1% J9 (10 mg/cm^2) and 0.05% J9 cream(2 mg/cm^2) were used to evaluate therapeutic effects on IMQ-induced psoriatic inflammation in a five-day experimental schedule (FIG. 7A). Mice of each group were photoed for evaluation at day 0 and day 5 (FIGS. 7B and 7C). […] PASI score, skin thickness and gene expression of lesional skin were also measured.

[3] = test system: inflammatory cytokine induced cytokine expression in dendritic cells (GMDC); assay: TNF-α or IL-1β induced cytokine expression in GMDC by RT-qPCR; type: cell-based, mouse; settings: GMDC pre-treated 1 hr, then TNF-α or IL-1β for 24 hrs
Description: Dendritic cells were pre-treated with different concentration of ASC-J9 and ASC-JM17 for 1 hour and then inflammatory cytokine TNF-α or IL-1β were added for 24 hours. Expression of mouse cytokine genes was measured by RT-qPCR. *: p<0.05; ns: not significant.
(§3) Cell culture: Mouse bone marrow derived dendritic cells (BMDC) and bone marrow derived macrophages (BMDM) were generated from mouse bone marrow cells. Briefly, dendritic cells can be generated by two induction procedures. Bone marrow cells can be induced into myeloid DCs called GMDC with GM-CSF and IL-4 for 10 days, while a mixed types of DCs including myeloid and plasmacytoid DCs called Fit3DC can be generated by induction with fit3-ligand for 10 days. To generate BMDMs, bone marrow cells are induced into BMDM by 30% L929 conditioned medium for 7 days.
(§4) Analysis of gene expression: Total RNA was purified from cells using Isol-RNA Lysis Reagent (5 PRIME GmbH, Hilden, Germany) according to the manufacturer's protocol. Reverse-transcription was performed using the QuantiNova® Reverse Transcription Kit (QIAGEN™) and oligo-dT primers for first-strand cDNA synthesis. Quantitative PCR was performed with gene-specific primers (see appendix) using LightCycler480 detection system (Roche Diagnostics GmbH, Penzberg, Germany) and QuantiNova® SYBR Green RT-PCR Kit for gene expression analysis. The level of mRNA expression was normalized to that of GAPDH.
(§5) Anti-inflammatory effects of J9 and JM17 for inflammatory cytokine including TNF-α, IL-1β, IL-17A, IL-22, IL-23 and IL-31 induced by TLR ligand in various immune cells including mouse splenocytes, mouse bone marrow derived dendritic cells and bone marrow derived macrophages were analyzed by quantitative PCR (RT-qPCR).
To evaluate the anti-inflammatory effects of J9 and JM17 in vitro, GMDC were pre-treated with J9 and JM17 for 1 hr and stimulated with the inflammatory cytokine, TNF-α or IL-1β[…]for 24 hrs. Expression of cytokines including TNF-α, IL-1β, IL-17A, IL-22, IL-23, and IL-31 were measured by RT-qPCR. […] Expression of IL-17A was not induced by TNF-α or IL-1β. […]

[4] = test system: GMDC (mouse bone marrow derived myeloid dendritic cells); assay: MTS assay for cell viability (cytotoxicity) on GMDC; type: cell-based; settings: 24 hours, 0 μM to 10 μM tested
Description: (§6) Cells were treated with different concentration of ASC-J9 and ASC-JM17 for 24 hours. Viability of cells were measured by MTS Assays. *: p<0.05.
(§7) MTS assay for cell viability: The cell toxicity of test articles is measured by MTS assay. The MTS assay is based on the reduction of the MTS tetrazolium compound by viable cells to generate a colored formazan dye that is soluble in cell culture media. This conversion is thought to be carried out by NAD(P)H-dependent dehydrogenase enzymes in metabolically active cells. The formazan dye is quantified by measuring the absorbance at 490-500 nm. The non-toxic dose will be applied for further assays.
(§8) Cell culture: Mouse bone marrow derived dendritic cells (BMDC) and bone marrow derived macrophages (BMDM) were generated from mouse bone marrow cells. Briefly, dendritic cells can be generated by two induction procedures. Bone marrow cells can be induced into myeloid DCs called GMDC with GM-CSF and IL-4 for 10 days, while a mixed types of DCs including myeloid and plasmacytoid DCs called Fit3DC can be generated by induction with fit3-ligand for 10 days. […]
(§9) The goal of this example is to evaluate the anti-inflammatory abilities of J9 and JM17 on psoriatic inflammation in vitro and in vivo. To find the safety doses of J9 and JM17 for in vitro study, cytotoxicity of J9 and JM17 were measured by MTS assay. […]

[5] = test system: R848 induced cytokine expression in mouse splenocytes; assay: R848 induced cytokine expression in mouse splenocytes by RT-qPCR; type: cell-based; settings: 1 μM pre-treatment 1 hr, R848 6 hrs
Description: Mouse splenocytes were pre-treated with 1 μM of ASC-J9 or ASC-JM17 for 1 hour and then TLR ligand, R848 were added for 6 hours. Expression of mouse cytokine genes were measured by RT-qPCR. *: p<0.01.
as §4, §5
(§10) We also evaluate anti-inflammatory effects of J9 and JM17 on mouse splenocytes and bone marrow derived macrophages. Mouse splenocytes were pre-treated with J9 and JM17 for 1 hr and TLR ligand, R848, were then added for 6 hrs.

[6] = test system: Fit3DC (mouse bone marrow derived dendritic cells, fit3-ligand induced); assay: MTS assay for cell viability (cytotoxicity) on Fit3DC; type: cell-based; settings: 24 hours, 0 μM to 10 μM tested
Description: as §6, §7, §8, §9

[7] = test system: artemin (ARTN) expression in keloid patient derived fibroblasts 256K and 268K; assay: ARTN mRNA expression in keloid patient derived fibroblasts by qPCR; type: cell-based, human; settings: keloid fibroblasts 256K and 268K, 24 hr treatment, mRNA by qPCR vs GAPDH
Description: Two keloid patient derived fibroblasts named 256K and 268K were treated with ASC-J9 for 24 hr. The cells were then harvested and mRNA expression of ARTN and GAPDH were determined by qPCR.

[8] = test system: R848 induced cytokine expression in mouse bone marrow derived macrophages (BMDM); assay: R848 induced cytokine expression in bone marrow derived macrophages by RT-qPCR; type: cell-based; settings: 1 μM pre-treatment 1 hour, R848 6 hours
Description: Macrophages were pre-treated with 1 μM of ASC-J9 or ASC-JM17 for 1 hour and then TLR ligand, R848 were added for 6 hours. Expression of mouse cytokine genes were measured by RT-qPCR. *: p<0.01; ns: not significant.
as §3, §4, §5, §10

SMILES: C[C@H]1C[C@H]2[C@@H]3CCC4=CC(=O)C=C[C@]4(C)[C@@]3(F)[C@@H](O)C[C@]2(C)[C@@]1(O)C(=O)CCl [clobetasol, reference compound]
- skin thickness ([1]; clobetasol 0.05% 8 mg/cm^2, day 10, compared to sham control group): reduced skin thickness compared to sham control group
- IMQ-induced erythema, scaling and increase of skin thickness in lesional skin ([1]; clobetasol 0.05% 8 mg/cm^2 topical daily, after 5 day treatment): strongly inhibited

SMILES: COc1ccc(/C=C/C(=O)CC(=O)/C=C/c2ccc(OC)c(OC)c2)cc1OC [ASC-J9]
- IMQ-induced expression of IL-1(3 in lesional skin) ([2]; 0.1% J9 10 mg/cm^2, RT-qPCR): inhibited
- IMQ-induced expression of TNF-a in lesional skin ([2]; 0.1% J9 10 mg/cm^2, RT-qPCR): inhibited
- IMQ-induced inflammation ([2]; 0.1% J9 10 mg/cm^2, after 5 day treatment): inhibited
- PASI scores ([2]; 0.1% J9 10 mg/cm^2, at day 4 to day 5): marked decreased
- IMQ-induced expression of IL-1(3 in lesional skin) ([2]; 0.5% J9 2 mg/cm^2, RT-qPCR): inhibited
- IMQ-induced expression of TNF-a in lesional skin ([2]; 0.5% J9 2 mg/cm^2, RT-qPCR): inhibited
- IMQ-induced inflammation ([2]; 0.5% J9 2 mg/cm^2, after 5 day treatment): inhibited
- PASI scores ([2]; 0.5% J9 2 mg/cm^2, at day 4 to day 5): marked decreased
- IMQ-induced expression of IL-1(3 in lesional skin) ([2]; 0.5% J9 6 mg/cm^2, RT-qPCR): inhibited
- IMQ-induced expression of TNF-a in lesional skin ([2]; 0.5% J9 6 mg/cm^2, RT-qPCR): inhibited
- IMQ-induced inflammation ([2]; 0.5% J9 6 mg/cm^2, after 5 day treatment): inhibited
- PASI scores ([2]; 0.5% J9 6 mg/cm^2, at day 4 to day 5): marked decreased
- TNF-α or IL-1β induced IL-1β expression [3]: significantly inhibit
- TNF-α or IL-1β induced IL-22 expression [3]: did not attenuate
- TNF-α or IL-1β induced TNF-α expression [3]: significantly inhibit
- non-toxic doses (cells resistant up to) [4]: up to 10 μM
- R848 induced IL-1β expression [5]: significantly inhibited
- R848 induced IL-17A expression [5]: significantly inhibited
- R848 induced IL-22 expression [5]: significantly inhibited
- R848 induced TNF-α expression [5]: significantly inhibited
- erythema, scaling, and thickness in lesional skins ([1]; 0.5% J9 cream 2 mg/cm^2 topical daily, after 5 day treatment): significantly reduced
- erythema, scaling, and thickness in lesional skins ([1]; 0.5% J9 cream 10 mg/cm^2 topical daily, after 5 day treatment): significantly reduced
- IMQ-induced increase of skin thickness ([1]; J9 2 mg/cm^2, measured at day 10 with vernier caliper): significantly inhibited
- Psoriasis Area Severity Index (PASI) score ([1]; J9 2 mg/cm^2 topical daily, at day 3 to day 10): significantly decreased
- IMQ-induced increase of skin thickness ([1]; J9 10 mg/cm^2, measured at day 10 with vernier caliper): significantly inhibited
- Psoriasis Area Severity Index (PASI) score ([1]; J9 10 mg/cm^2 topical daily, at day 4 to day 6): significantly decreased
- IMQ-induced IL-1β expression in lesional skin ([1]; at day 10, RT-qPCR): attenuated
- thickeness of the epidermis and dermis and keratinocyte proliferation in epidermis and inflammation (H&E staining) ([1]; lesional skin after 10 day treatment): reduced
- non-toxic doses (cells resistant up to) [6]: up to 10 μM
- artemin (ARTN) expression (pruritus marker) [7]: down-regulating
- R848-induced expression of IL-1β [8]: inhibited
- R848-induced expression of IL-17A [8]: inhibited
- R848-induced expression of IL-22 [8]: inhibited
- R848-induced expression of IL-31 [8]: inhibited
- R848-induced expression of TNF-α [8]: inhibited
